Values joined by “and” are separate entries in the source; they are usually repeats but may differ in a detail not shown here. Equal values may be shown once. Where no end group is shown, it is not given here.
Tests used:
[1] = test system: C. albicans cell membrane; assay: Membrane depolarization assay with DiSC3(5) dye; assay type: cell-based, Candida albicans
C. albicans cells = assay: Ultrastructural analysis by electron microscopy of cryo-fixed cells; conditions: 30 μM, 60 min, 30°C
[2] = cited from earlier work
[3] = Vesicle leakage assay, PC-PE-ergosterol; assay type: biochemical; conditions: for relative change in leakage compared to PC-LUVs: P ≤ 0.05; for % Leakage: PC-PE-ergosterol-LUVs, 50 μM lipid, ANTS-DPX, HEPES pH 7.4, 30 min, 37°C, 1% Triton X-100 = 100%, mean ± SD, 2 experiments in duplicates
[4] = Vesicle leakage assay, PG; assay type: biochemical; conditions: for relative change in leakage compared to PC-LUVs: P ≤ 0.05; for % Leakage: PG-LUVs, 50 μM lipid, ANTS-DPX, HEPES pH 7.4, 30 min, 37°C, 1% Triton X-100 = 100%, mean ± SD, 2 experiments in duplicates
[5] = Vesicle leakage assay, PC-CL; assay type: biochemical; conditions: for relative change in leakage compared to PC-LUVs: P ≤ 0.05; for % Leakage: PC-CL-LUVs, 50 μM lipid, ANTS-DPX, HEPES pH 7.4, 30 min, 37°C, 1% Triton X-100 = 100%, mean ± SD, 2 experiments in duplicates
[6] = Vesicle leakage assay, PC-PE; assay type: biochemical; conditions: for relative change in leakage compared to PC-LUVs: P ≤ 0.05; for % Leakage: PC-PE-LUVs, 50 μM lipid, ANTS-DPX, HEPES pH 7.4, 30 min, 37°C, 1% Triton X-100 = 100%, mean ± SD, 2 experiments in duplicates
[7] = Vesicle leakage assay, PG-PE-CL; assay type: biochemical; conditions: PG-PE-CL-LUVs, 50 μM lipid, ANTS-DPX, HEPES pH 7.4, 30 min, 37°C, 1% Triton X-100 = 100%, mean ± SD, 2 experiments in duplicates
[8] = Vesicle leakage assay, PC-ergosterol; assay type: biochemical; conditions: for relative change in leakage compared to PC-LUVs: P ≤ 0.05; for % Leakage: PC-ergosterol-LUVs, 50 μM lipid, ANTS-DPX, HEPES pH 7.4, 30 min, 37°C, 1% Triton X-100 = 100%, mean ± SD, 2 experiments in duplicates
[9] = Vesicle leakage assay, PC-PI; assay type: biochemical; conditions: for relative change in leakage compared to PC-LUVs: P ≤ 0.05; for % Leakage: PC-PI-LUVs, 50 μM lipid, ANTS-DPX, HEPES pH 7.4, 30 min, 37°C, 1% Triton X-100 = 100%, mean ± SD, 2 experiments in duplicates
[10] = test system: mammalian cells; primary human skin cells and three-dimensional skin epidermal models; conditions: cited from earlier work
[11] = Vesicle leakage assay, PC-ceramide; assay type: biochemical; conditions: for % Leakage: PC-ceramide-LUVs, 50 μM lipid, ANTS-DPX, HEPES pH 7.4, 30 min, 37°C, 1% Triton X-100 = 100%, mean ± SD, 2 experiments in duplicates
[12] = Vesicle leakage assay, PC; assay type: biochemical; conditions: PC-LUVs, 50 μM lipid, ANTS-DPX, HEPES pH 7.4, 30 min, 37°C, 1% Triton X-100 = 100%, mean ± SD, 2 experiments in duplicates
[13] = Vesicle leakage assay, PC-PS-ergosterol; assay type: biochemical; conditions: for relative change in leakage compared to PC-LUVs: P ≤ 0.05; for % Leakage: PC-PS-ergosterol-LUVs, 50 μM lipid, ANTS-DPX, HEPES pH 7.4, 30 min, 37°C, 1% Triton X-100 = 100%, mean ± SD, 2 experiments in duplicates
[14] = Vesicle leakage assay, PC-PS; assay type: biochemical; conditions: for % Leakage: PC-PS-LUVs, 50 μM lipid, ANTS-DPX, HEPES pH 7.4, 30 min, 37°C, 1% Triton X-100 = 100%, mean ± SD, 2 experiments in duplicates
[15] = Vesicle leakage assay, PC-sphingomyelin; assay type: biochemical; conditions: for relative change in leakage compared to PC-LUVs: P ≤ 0.05; for % Leakage: PC-sphingomyelin-LUVs, 50 μM lipid, ANTS-DPX, HEPES pH 7.4, 30 min, 37°C, 1% Triton X-100 = 100%, mean ± SD, 2 experiments in duplicates

Substance: KKLLPIVKNLLKSLL-NH2 (C-terminus assumed) [TB_KKG6K]
- time to maximum DiSC3(5) fluorescence intensity ([1]; 1 μM peptide): 15 min
- time to maximum DiSC3(5) fluorescence intensity ([1]; 2 μM peptide): 25 min
- membrane depolarization, DiSC3(5) fluorescence intensity ([1]; 1 × 10^6 cells/mL, 30°C, 60 min, TB analog 0.5, 1, 2 μM, Triton X-100 1% (wt/vol), PCγ^C-terminal 32 μM): induced membrane depolarization in a concentration- and time-dependent manner
- cell lysis (C. albicans cells): indications of cell lysis were not observed
- ultrastructural damage (C. albicans cells): severe ultrastructural damage to the vast majority of cells
- hydrophobicity (hydrophobic amino acids) [2]: 53%
- positive net charge ([2]; pH 7): +3.9
- relative change in leakage compared to PC-LUVs ([3]; 2 μM peptide): −56%
- relative change in leakage compared to PC-LUVs ([3]; 4 μM peptide): −58%
- relative change in leakage compared to PC-LUVs ([3]; 8 μM peptide): −68%
- % Leakage ([3]; 2 μM peptide (25:1)): 14.8 ± 0.8%
- % Leakage ([3]; 4 μM peptide (12:1)): 17.1 ± 6.0%
- % Leakage ([3]; 8 μM peptide (6:1)): 15.8 ± 1.3%
- relative change in leakage compared to PC-LUVs ([4]; 4 μM peptide): +30%
- relative change in leakage compared to PC-LUVs ([4]; 8 μM peptide): +20%
- % Leakage ([4]; 2 μM peptide (lipid:peptide 25:1)): 56% ± 4% and 56.0 ± 4.0%
- % Leakage ([4]; 4 μM peptide (12:1)): 57.7 ± 3.9%
- % Leakage ([4]; 8 μM peptide (6:1)): 61% ± 4% and 61.1 ± 4.1%
- relative change in leakage compared to PC-LUVs ([5]; 2 μM peptide): −93%
- relative change in leakage compared to PC-LUVs ([5]; 4 μM peptide): −75%
- relative change in leakage compared to PC-LUVs ([5]; 8 μM peptide): +20%
- % Leakage ([5]; 2 μM peptide (25:1)): 2.2 ± 0.8%
- % Leakage ([5]; 4 μM peptide (12:1)): 9.9 ± 0.7%
- % Leakage ([5]; 8 μM peptide (6:1)): 59.0 ± 5.8%
- relative change in leakage compared to PC-LUVs ([6]; 2 μM peptide): −32%
- relative change in leakage compared to PC-LUVs ([6]; 4 μM peptide): −22%
- relative change in leakage compared to PC-LUVs ([6]; 8 μM peptide): −19%
- % Leakage ([6]; 2 μM peptide (25:1)): 22.8 ± 1.3%
- % Leakage ([6]; 4 μM peptide (12:1)): 31.5 ± 2.1%
- % Leakage ([6]; 8 μM peptide (6:1)): 40.0 ± 3.1%
- % Leakage ([7]; 2 μM peptide (25:1)): 5.3 ± 1.3%
- % Leakage ([7]; 4 μM peptide (12:1)): 40.2 ± 0.9%
- % Leakage ([7]; 8 μM peptide (6:1)): 61% ± 3% and 61.5 ± 2.7%
- relative change in leakage compared to PC-LUVs ([8]; 2 μM peptide): −71%
- relative change in leakage compared to PC-LUVs ([8]; 4 μM peptide): −68%
- relative change in leakage compared to PC-LUVs ([8]; 8 μM peptide): −66%
- % Leakage ([8]; 2 μM peptide (25:1)): 9.8 ± 1.5%
- % Leakage ([8]; 4 μM peptide (12:1)): 13.0 ± 0.6%
- % Leakage ([8]; 8 μM peptide (6:1)): 16.9 ± 2.0%
- relative change in leakage compared to PC-LUVs ([9]; 4 μM peptide): +29%
- relative change in leakage compared to PC-LUVs ([9]; 8 μM peptide): +15%
- % Leakage ([9]; 2 μM peptide (25:1)): 37.7 ± 3.9%
- % Leakage ([9]; 4 μM peptide (12:1)): 52.5 ± 2.4%
- % Leakage ([9]; 8 μM peptide (6:1)): 56.5 ± 2.9%
- hemolysis and cytotoxicity to mammalian cells in vitro [10]: neither hemolytic nor cytotoxic
- tolerance by primary human skin cells and three-dimensional skin epidermal models in vitro [10]: well tolerated
- relative change in leakage compared to PC-LUVs ([11]; 2 μM peptide, P ≤ 0.05): −47%
- % Leakage ([11]; 2 μM peptide (25:1)): 17.9 ± 1.8%
- % Leakage ([11]; 4 μM peptide (12:1)): 39.9 ± 2.4%
- % Leakage ([11]; 8 μM peptide (6:1)): 44.8 ± 1.9%
- % Leakage ([12]; 2 μM peptide (25:1)): 33.8 ± 3.0%
- % Leakage ([12]; 4 μM peptide (12:1)): 40.6 ± 3.2%
- % Leakage ([12]; 8 μM peptide (6:1)): 49.2 ± 4.5%
- relative change in leakage compared to PC-LUVs ([13]; 2 μM peptide): −36%
- relative change in leakage compared to PC-LUVs ([13]; 4 μM peptide): −26%
- % Leakage ([13]; 2 μM peptide (25:1)): 21.8 ± 3.5%
- % Leakage ([13]; 4 μM peptide (12:1)): 30.1 ± 4.6%
- % Leakage ([13]; 8 μM peptide (6:1)): 46.3 ± 4.2%
- relative change in leakage compared to PC-LUVs ([14]; 2 μM peptide, P ≤ 0.05): −33%
- % Leakage ([14]; 2 μM peptide (25:1)): 22.6 ± 3.3%
- % Leakage ([14]; 4 μM peptide (12:1)): 38.1 ± 10.5%
- % Leakage ([14]; 8 μM peptide (6:1)): 47.4 ± 15.1%
- relative change in leakage compared to PC-LUVs ([15]; 2 μM peptide): −44%
- relative change in leakage compared to PC-LUVs ([15]; 4 μM peptide): −34%
- relative change in leakage compared to PC-LUVs ([15]; 8 μM peptide): −31%
- % Leakage ([15]; 2 μM peptide (25:1)): 18.8 ± 3.1%
- % Leakage ([15]; 4 μM peptide (12:1)): 26.5 ± 1.0%
- % Leakage ([15]; 8 μM peptide (6:1)): 33.9 ± 2.0%

— PMC9599520, “The Membrane Activity of the Amphibian Temporin B Peptide Analog TB_KKG6K Sheds Light on the Mechanism That Kills Candida albicans” (mSphere, 2022)
